Measured values: ChEMBL document CHEMBL1134151, “Solution-phase, parallel synthesis and pharmacological evaluation of acylguanidine derivatives as potential sodium channel blockers” (Bioorg Med Chem Lett, 2001)

Experiments:
[1] = molecular target: Sodium channel protein type 2 subunit alpha (Homo sapiens, UniProt Q99250); experiment: Inhibition of sodium channel blockade in CHO cells expressing neuronal mammalian type IIA (CNaIIA) sodium channel; assay type: cell-based
[2] = molecular target: Sodium channel protein type 5 subunit alpha (Homo sapiens, UniProt Q14524); experiment: Inhibition of sodium channel blockade in CHO cells expressing human cardiac (hHI) sodium channel; assay type: cell-based
Sequence of Sodium channel protein type 5 subunit alpha (Q14524 whole entry): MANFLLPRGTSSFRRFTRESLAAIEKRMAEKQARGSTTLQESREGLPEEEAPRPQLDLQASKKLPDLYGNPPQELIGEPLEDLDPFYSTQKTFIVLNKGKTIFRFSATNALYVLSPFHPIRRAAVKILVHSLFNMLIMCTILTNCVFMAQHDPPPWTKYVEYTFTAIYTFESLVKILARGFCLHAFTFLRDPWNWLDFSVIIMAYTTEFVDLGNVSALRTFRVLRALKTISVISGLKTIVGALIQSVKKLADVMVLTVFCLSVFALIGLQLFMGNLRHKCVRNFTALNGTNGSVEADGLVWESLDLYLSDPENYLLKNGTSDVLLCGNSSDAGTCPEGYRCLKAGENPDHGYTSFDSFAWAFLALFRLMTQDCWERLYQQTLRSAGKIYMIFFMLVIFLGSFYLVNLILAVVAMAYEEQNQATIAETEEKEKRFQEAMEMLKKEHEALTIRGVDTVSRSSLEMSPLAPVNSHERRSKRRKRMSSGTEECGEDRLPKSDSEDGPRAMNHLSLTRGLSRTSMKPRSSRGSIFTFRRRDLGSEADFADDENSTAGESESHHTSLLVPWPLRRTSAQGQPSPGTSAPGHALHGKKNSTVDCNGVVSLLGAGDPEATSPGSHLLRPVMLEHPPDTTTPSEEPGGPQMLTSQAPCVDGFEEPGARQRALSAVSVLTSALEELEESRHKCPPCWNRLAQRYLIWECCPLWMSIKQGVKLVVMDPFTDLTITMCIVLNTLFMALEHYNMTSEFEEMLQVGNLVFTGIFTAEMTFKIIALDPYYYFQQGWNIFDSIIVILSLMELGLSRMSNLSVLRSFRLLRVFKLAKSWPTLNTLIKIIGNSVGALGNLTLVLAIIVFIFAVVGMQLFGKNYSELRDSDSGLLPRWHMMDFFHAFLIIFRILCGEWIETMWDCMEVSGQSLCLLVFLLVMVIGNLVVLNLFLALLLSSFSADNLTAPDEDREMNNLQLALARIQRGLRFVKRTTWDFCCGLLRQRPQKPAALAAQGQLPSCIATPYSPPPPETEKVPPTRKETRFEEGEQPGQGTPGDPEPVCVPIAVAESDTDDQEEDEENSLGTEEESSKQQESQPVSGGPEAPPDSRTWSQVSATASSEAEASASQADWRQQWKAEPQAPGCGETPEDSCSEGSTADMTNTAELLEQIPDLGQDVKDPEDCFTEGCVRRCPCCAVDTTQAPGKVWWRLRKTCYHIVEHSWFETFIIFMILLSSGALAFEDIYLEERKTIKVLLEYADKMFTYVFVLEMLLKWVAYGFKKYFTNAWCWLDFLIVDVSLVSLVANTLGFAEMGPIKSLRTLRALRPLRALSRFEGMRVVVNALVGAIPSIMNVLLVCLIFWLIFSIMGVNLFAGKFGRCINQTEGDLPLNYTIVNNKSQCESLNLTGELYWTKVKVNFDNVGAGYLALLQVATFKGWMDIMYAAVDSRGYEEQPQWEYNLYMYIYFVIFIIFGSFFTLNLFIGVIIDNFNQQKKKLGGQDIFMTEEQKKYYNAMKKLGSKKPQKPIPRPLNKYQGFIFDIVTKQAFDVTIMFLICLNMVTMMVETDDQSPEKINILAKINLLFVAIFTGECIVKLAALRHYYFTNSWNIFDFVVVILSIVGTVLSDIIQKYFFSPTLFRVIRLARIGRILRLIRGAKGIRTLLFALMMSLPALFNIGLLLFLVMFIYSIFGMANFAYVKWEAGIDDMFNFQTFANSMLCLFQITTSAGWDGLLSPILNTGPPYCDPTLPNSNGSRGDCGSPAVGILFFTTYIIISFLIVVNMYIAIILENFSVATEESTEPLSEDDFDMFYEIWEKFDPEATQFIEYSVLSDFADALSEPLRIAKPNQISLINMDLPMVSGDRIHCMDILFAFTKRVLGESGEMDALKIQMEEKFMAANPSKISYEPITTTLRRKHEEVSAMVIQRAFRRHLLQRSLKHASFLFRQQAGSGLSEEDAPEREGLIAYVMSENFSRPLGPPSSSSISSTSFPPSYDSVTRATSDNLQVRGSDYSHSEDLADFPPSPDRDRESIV

[3] = pKa value determined; assay type: physicochemical
Mus musculus = experiment: In vivo anticonvulsant activity tested as percent inhibition of audiogenic antiseizure in DBA/2 mice at a dose of 20 mg/kg, ip; assay type: functional; settings: route intraperitoneal
[4] = Partition coefficient (logD); assay type: physicochemical; settings: octanol/water

Sequence of Sodium channel protein type 2 subunit alpha (Q99250 whole entry): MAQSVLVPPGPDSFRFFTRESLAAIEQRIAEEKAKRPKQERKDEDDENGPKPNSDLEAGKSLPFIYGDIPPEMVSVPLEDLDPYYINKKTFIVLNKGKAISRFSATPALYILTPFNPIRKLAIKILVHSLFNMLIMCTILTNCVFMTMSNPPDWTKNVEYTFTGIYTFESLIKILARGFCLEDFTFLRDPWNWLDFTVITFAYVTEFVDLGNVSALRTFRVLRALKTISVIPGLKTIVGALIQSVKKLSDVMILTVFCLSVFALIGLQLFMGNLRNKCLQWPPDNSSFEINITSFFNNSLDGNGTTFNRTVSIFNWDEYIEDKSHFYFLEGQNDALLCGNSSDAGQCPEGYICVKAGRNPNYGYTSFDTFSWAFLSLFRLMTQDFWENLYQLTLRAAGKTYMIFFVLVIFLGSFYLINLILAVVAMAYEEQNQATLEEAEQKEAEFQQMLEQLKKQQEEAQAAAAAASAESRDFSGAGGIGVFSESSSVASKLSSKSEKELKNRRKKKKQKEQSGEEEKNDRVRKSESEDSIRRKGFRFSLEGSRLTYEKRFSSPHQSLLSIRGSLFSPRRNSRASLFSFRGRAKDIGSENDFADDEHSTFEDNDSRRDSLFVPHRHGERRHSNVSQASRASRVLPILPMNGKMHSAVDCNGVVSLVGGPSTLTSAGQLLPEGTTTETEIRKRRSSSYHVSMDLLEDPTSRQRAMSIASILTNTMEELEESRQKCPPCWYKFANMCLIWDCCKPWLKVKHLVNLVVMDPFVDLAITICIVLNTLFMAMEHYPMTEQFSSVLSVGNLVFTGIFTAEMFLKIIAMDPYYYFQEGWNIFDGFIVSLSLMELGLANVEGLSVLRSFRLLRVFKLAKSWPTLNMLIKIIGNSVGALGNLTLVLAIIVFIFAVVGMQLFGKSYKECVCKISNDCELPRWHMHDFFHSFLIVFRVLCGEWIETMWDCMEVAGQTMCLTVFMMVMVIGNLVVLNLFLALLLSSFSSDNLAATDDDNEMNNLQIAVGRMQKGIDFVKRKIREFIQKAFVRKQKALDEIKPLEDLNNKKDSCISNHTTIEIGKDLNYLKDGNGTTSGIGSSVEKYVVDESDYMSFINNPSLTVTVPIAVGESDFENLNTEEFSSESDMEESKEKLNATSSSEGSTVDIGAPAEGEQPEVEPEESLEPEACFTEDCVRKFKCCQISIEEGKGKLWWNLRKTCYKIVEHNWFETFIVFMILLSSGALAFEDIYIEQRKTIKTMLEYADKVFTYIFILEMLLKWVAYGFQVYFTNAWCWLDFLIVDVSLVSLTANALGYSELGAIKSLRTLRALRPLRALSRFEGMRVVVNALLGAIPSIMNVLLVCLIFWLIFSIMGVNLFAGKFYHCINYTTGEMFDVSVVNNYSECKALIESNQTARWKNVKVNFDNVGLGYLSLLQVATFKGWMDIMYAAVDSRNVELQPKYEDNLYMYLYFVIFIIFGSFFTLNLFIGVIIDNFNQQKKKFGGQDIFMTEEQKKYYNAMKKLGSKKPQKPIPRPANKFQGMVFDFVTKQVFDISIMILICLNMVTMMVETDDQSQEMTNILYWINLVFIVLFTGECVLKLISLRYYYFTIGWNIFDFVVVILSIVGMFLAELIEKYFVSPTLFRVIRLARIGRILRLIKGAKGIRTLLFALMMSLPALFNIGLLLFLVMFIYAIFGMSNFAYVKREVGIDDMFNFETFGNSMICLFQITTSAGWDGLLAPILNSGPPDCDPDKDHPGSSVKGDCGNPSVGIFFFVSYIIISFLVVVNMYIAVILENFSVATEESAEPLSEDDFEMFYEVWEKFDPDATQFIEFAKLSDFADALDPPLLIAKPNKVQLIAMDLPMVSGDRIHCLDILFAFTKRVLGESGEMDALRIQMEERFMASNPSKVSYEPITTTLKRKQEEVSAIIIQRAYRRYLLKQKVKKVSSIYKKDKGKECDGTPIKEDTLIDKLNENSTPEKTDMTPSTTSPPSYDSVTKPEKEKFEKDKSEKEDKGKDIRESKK

Row | SMILES | IC50 [1] | IC50 [2] | pKa [3] | inhibition in vivo at 20 mg/kg (Mus musculus) | logD [4]
1 | Cc1ccc(C(=O)NC(=N)Nc2cccc3ccccc23)cc1 | 3.29 µM | – | – | – | –
2 | NC(=NCCCCc1ccccc1)NC(=O)c1ccc(Cl)c(Cl)c1 | 7.11 µM | 15.5 µM | – | – | –
3 | Cc1ccc(C(=O)NC(N)=Nc2cc(Br)ccc2Br)cc1 | > 25 µM | – | – | – | –
4 | NC(=NCCCCc1ccccc1)NC(=O)c1c(Cl)cccc1Cl | 5.03 µM | 5.4 µM | – | – | –
5 | Cc1ccc(C(=O)NC(=N)NCCCCc2ccccc2)cc1 | 1.14 µM | 2.85 µM | 7.09 | 75% | –
6 | COc1cc(NC(=N)NC(=O)c2ccc(C)cc2)cc(OC)c1OC | 1.92 µM | 24.4 µM | – | – | –
7 | N=C(N)N [GUANIDINE] | – | – | 12.6 | – | –
8 | Cc1ccccc1C(=O)NC(N)=NCCCCc1ccccc1 | 1.2 µM | 1.75 µM | – | 53% | –
9 | COc1cccc2[nH]cc(CCN=C(N)NC(=O)c3ccc(C)cc3)c12 | 3.35 µM | 3.92 µM | – | – | –
10 | Cc1ccc(C(=O)NC(N)=NCCCN(C)C)cc1 | > 25 µM | – | – | – | –
11 | Cc1ccc(C(=O)NC(N)=NCc2ccccc2)cc1 | 3.87 µM | – | – | – | –
12 | Cc1ccc(C(=O)NC(N)=NCCc2ccccc2)cc1 | 2.66 µM | 5.65 µM | – | – | –
13 | NC(=NCCCCc1ccccc1)NC(=O)c1cccc2ccccc12 | 0.86 µM | 4.1 µM | – | 9% | –
14 | Cc1ccc(C(=O)NC(=N)Nc2ccc(OCc3ccccc3)cc2)cc1 | 10.1 µM | – | – | – | –
15 | Cc1ccc(C(=O)NC(=N)N2CCCc3ccc(C(F)(F)F)cc32)cc1 | > 25 µM | – | – | – | –
16 | CCOc1ccc(C(=O)NC(N)=NCCCCc2ccccc2)cc1 | 0.76 µM | 1.1 µM | – | 60% | –
17 | NC(=NCCCCc1ccccc1)NC(=O)c1cccc(Cl)c1Cl | 1.48 µM | 2.71 µM | – | – | –
18 | CCCC/N=C(/N)NC(=O)c1ccc(C)cc1 | 17.4 µM | 9 µM | – | – | –
19 | NC(=NCCCCc1ccccc1)NC(=O)c1cc(Cl)ccc1Cl | 3.25 µM | 7.89 µM | – | – | –
20 | N=C(N)Nc1ccccc1 [PHENYLGUANIDINE] | – | – | 10.8 | – | –
21 | Cc1ccc(C(=O)NC(=N)NCCCCCc2ccccc2)cc1 | 2.11 µM | 3.6 µM | – | 7% | –
22 | Cc1ccc(C(=O)N/C(N)=N\c2ccccc2C(C)C)cc1 | 4.36 µM | 4.5 µM | – | – | –

Row | SMILES | IC50 [1] | IC50 [2] | pKa [3] | inhibition in vivo at 20 mg/kg (Mus musculus) | logD [4]
23 | Cc1ccc(C(=O)NC(N)=NCc2cccc3ccccc23)cc1 | 2.38 µM | 8.85 µM | – | – | –
24 | COc1cc(C(=O)NC(N)=NCCCCc2ccccc2)cc(OC)c1OC | 1.39 µM | 1.51 µM | – | – | –
25 | Cc1ccc(C(=O)NC(N)=NCCOc2ccccc2)cc1 | 3.23 µM | 14.2 µM | – | – | –
26 | N=C(NCCCCc1ccccc1)NC(=O)c1cccs1 | 4.31 µM | 2.35 µM | – | – | –
27 | Cc1ccc(C(=O)NC(=N)N2CCc3ccccc32)cc1 | 8.81 µM | > 100 µM | – | 16% | –
28 | CN=C(NCCCCc1ccccc1)NC(=O)c1ccc(C)cc1 | 4.16 µM | 9 µM | – | – | –
29 | COc1ccc(C(=O)NC(=N)NCCCCc2ccccc2)cc1 | 0.82 µM | 2.1 µM | – | 42% | –
30 | Cc1ccc(C(=O)NC(=N)Nc2ccc(C(C)(C)C)cc2)cc1 | > 24 µM | – | – | – | –
31 | Cc1ccc(C(=O)NC(N)=NCCSCc2ccccc2)cc1 | 3.9 µM | 10.8 µM | – | – | –
32 | Cc1ccc(C(=O)NC(=N)NCCc2cccs2)cc1 | 4.95 µM | 10.5 µM | – | – | –
33 | Cc1ccc(C(=O)NC(=N)NCCCc2ccccc2)cc1 | 6.03 µM | 5.25 µM | – | – | –
34 | CCCCOc1ccc(C(=O)NC(N)=NCCCCc2ccccc2)cc1 | 0.63 µM | 0.56 µM | – | 97% | –
35 | Cc1ccc(C(=O)NC(=N)Nc2ccc(C(C)C)cc2)cc1 | 1.95 µM | 19.7 µM | 6.35 | 30% | 4.4
36 | Cc1ccc(C(=O)NC(N)=NCCc2ccc(Cl)cc2)cc1 | 1.97 µM | 8.5 µM | – | – | –
37 | Cc1ccc(C(=O)NC(=N)N(C)c2cccc(I)c2)cc1 | 9.45 µM | – | – | – | –
38 | COc1ccc2[nH]cc(CCN=C(N)NC(=O)c3ccc(C)cc3)c2c1 | 1.76 µM | 1.76 µM | – | – | –
39 | N=C(N)NC(=O)c1ccccc1 | – | – | 6.98 | – | –
40 | Cc1ccc(C(=O)NC(=N)N(C)Sc2cccc(C)c2)cc1 | 5.44 µM | – | – | – | –
41 | Cc1ccc(C(=O)NC(=N)Nc2ccc(OC(C)C)cc2)cc1 | 2.02 µM | 5.75 µM | – | – | –
42 | NC(=NCCCCc1ccccc1)NC(=O)c1ccc(Cl)cc1 | 4.3 µM | 3.6 µM | – | – | –
43 | Cc1ccc(C(=O)NC(N)=NCCCOc2ccccc2)cc1 | 2.67 µM | 5.6 µM | – | 54% | –
44 | NC(=NCCCCc1ccccc1)NC(=O)c1ccco1 | 13.8 µM | 7.9 µM | – | 5% | –
